Data as given in PubChem BioAssay (NCI).
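Five compound concentrations were applied to cells in 96-well plates for 48 hours; endpoints were derived by simple linear interpolation of the resulting dose-response curve. GI50: concentration for 50% inhibition of growth. The concentration for full growth arrest is given as TGI.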

Legend:
Assay in all cases: inhibition of tumour cell growth, NCI panel, 48 h
CCRF-CEM leukemia = tested on: CCRF-CEM leukemia
DU-145 prostate = tested on: DU-145 prostate
HCC-2998 colon = tested on: HCC-2998 colon
HCT-15 colon = tested on: HCT-15 colon
HS 578T breast = tested on: HS 578T breast
HT29 colon = tested on: HT29 colon
MCF7 breast = tested on: MCF7 breast
NCI-H226 lung = tested on: NCI-H226 lung
NCI-H460 lung = tested on: NCI-H460 lung
SNB-19 CNS = tested on: SNB-19 CNS
SR leukemia = tested on: SR leukemia
TK-10 renal = tested on: TK-10 renal
UO-31 renal = tested on: UO-31 renal

Row | Compound | TGI (CCRF-CEM leukemia) | TGI (DU-145 prostate) | TGI (HCC-2998 colon) | TGI (HCT-15 colon) | TGI (HS 578T breast) | TGI (HT29 colon) | TGI (MCF7 breast) | TGI (NCI-H226 lung) | TGI (NCI-H460 lung) | TGI (SNB-19 CNS) | TGI (SR leukemia) | TGI (TK-10 renal) | TGI (UO-31 renal) | GI50 (CCRF-CEM leukemia) | GI50 (HCT-15 colon) | GI50 (HS 578T breast) | GI50 (HT29 colon) | GI50 (NCI-H226 lung) | GI50 (SR leukemia)
1 | CSC1(C)C(=O)Nc2c(OCc3ccccc3)cc([N+](=O)[O-])cc21 (stereo not given) | > 100 µM | > 100 µM | > 100 µM | > 100 µM | 32.6 µM | > 100 µM | 44.1 µM | 31 µM | > 100 µM | > 100 µM | > 100 µM | > 100 µM |  |  |  |  |  |  | 
2 | CN(CC(=O)O)c1ncc2c(n1)C=CCC2 | > 100 µM | > 100 µM |  | > 100 µM | > 100 µM | > 100 µM | > 100 µM | > 100 µM | > 100 µM | > 100 µM | > 100 µM | > 100 µM | > 100 µM |  |  |  |  |  | 
3 | O=C1CSC(c2c[nH]c3ccccc23)N1c1ccc(Cl)cc1 (stereo not given) |  | > 100 µM | > 100 µM | > 100 µM | > 100 µM | > 100 µM | > 100 µM | > 100 µM | > 100 µM | > 100 µM |  | > 100 µM | > 100 µM |  |  |  |  |  | 
4 | CC1(c2sccc2Cl)CC(c2sccc2Cl)=C(C#N)C(=C(C#N)C#N)N1 (stereo not given) | > 100 µM | 31.2 µM | 29.4 µM | 35 µM | 48.5 µM | 54.6 µM | 48.5 µM |  | 43.6 µM | 38.5 µM |  | 31.6 µM |  |  |  |  |  |  | 
5 | COc1cc2c(c(OC)c1OC)C(=O)[C@@H]1[C@H]2N1C(=O)NCCCl | > 100 µM | > 100 µM | > 100 µM | > 100 µM | > 100 µM | > 100 µM | > 100 µM | > 100 µM | > 100 µM | > 100 µM | > 100 µM | > 100 µM | > 100 µM |  |  |  |  |  | 
6 | COc1ccc(/C(C)=N/NC(=O)c2ccncc2)c(OC)c1 | > 10 µM | > 10 µM | > 10 µM | > 10 µM | > 10 µM |  | > 10 µM | > 10 µM | > 10 µM |  | > 10 µM | > 10 µM | > 10 µM |  |  |  |  |  | 
7 | CC(=O)c1[nH]c(NC(C)C)c(C(=S)Nc2ccccc2)c1N | 72.9 µM | > 100 µM | 75.5 µM | > 100 µM | > 100 µM | > 100 µM | 42.2 µM | 60.4 µM | > 100 µM | 91.5 µM | 76.8 µM | > 100 µM | 77.7 µM |  |  |  |  |  | 
8 | CN(C)c1ccc(/C=C/c2ccc(S(N)(=O)=O)cc2)cc1 | > 100 µM | 49.8 µM | > 100 µM | 74.1 µM | 12.6 µM | > 100 µM | > 100 µM | 33 µM | > 100 µM | 44.9 µM | > 100 µM | 39.8 µM | 34.5 µM | 46 µM | 17.1 µM | 3.03 µM | 30.8 µM | 12.1 µM | 8.58 µM
9 | CC(O)C1(CNc2cc(Cl)nc(N)n2)CCCCC1 (stereo not given) | > 100 µM | > 100 µM |  | > 100 µM | > 100 µM | > 100 µM | > 100 µM | > 100 µM | > 100 µM | > 100 µM | > 100 µM | > 100 µM | > 100 µM |  |  |  |  |  | 
10 | CCOC(=O)/C=C(\C(=O)OCC)n1ccc(=O)n(Cc2cnnn2CCCCOC(C)=O)c1=O |  | 36.1 µM | 35.5 µM | 20.3 µM | 58.9 µM | 23.5 µM | 18.8 µM | 39.4 µM | 26 µM |  | 5.49 µM | 8.96 µM | 36.5 µM |  |  |  |  |  | 1.68 µM
11 | COc1cc(CSc2ccc(O)cc2)cc(OC)c1OC |  | > 100 µM |  | > 100 µM | > 100 µM | > 100 µM | 66.6 µM | > 100 µM | > 100 µM | > 100 µM | > 100 µM | > 100 µM | 52 µM |  |  |  |  |  | 
12 | CSC1NC(c2ccccc2)=C(C#N)C(=O)N1C1OCC(OC(C)=O)C(OC(C)=O)C1OC(C)=O (stereo not given) |  | > 100 µM | > 100 µM | > 100 µM | > 100 µM | > 100 µM | > 100 µM | > 100 µM | > 100 µM | > 100 µM | > 100 µM | > 100 µM | > 100 µM |  |  |  |  |  | 
13 | Clc1cc2nn(C3CCCCO3)nc2cc1Cl (stereo not given) | > 100 µM | > 100 µM | > 100 µM | > 100 µM | > 100 µM | > 100 µM | > 100 µM | > 100 µM | > 100 µM | > 100 µM | > 100 µM | > 100 µM | > 100 µM |  |  |  |  |  | 
14 | COC(=O)C1CCC(=O)N1C(c1cc(OC)c(OC)c(OC)c1)c1cc(OC)c(OC)c(OC)c1 (stereo not given) |  | > 100 µM |  | > 100 µM | > 100 µM | > 100 µM | > 100 µM |  | > 100 µM | > 100 µM | > 100 µM | > 100 µM | > 100 µM |  |  |  |  |  | 
15 | CCOC(=O)NN(C(=O)OCC)C(C(=O)C1=CCCCC1)N(NC(=O)OCC)C(=O)OCC |  | > 100 µM | > 100 µM | > 100 µM | > 100 µM | > 100 µM | > 100 µM | > 100 µM | > 100 µM | > 100 µM | > 100 µM | > 100 µM | > 100 µM |  |  |  |  |  | 
16 | COc1ccccc1Cc1ccc(C2C=CC3(CC(=O)C=C3C)C(=O)C2)o1 (stereo not given) |  | > 100 µM | > 100 µM | 81.4 µM | 68.7 µM | > 100 µM | 34.4 µM | 61.6 µM | > 100 µM | > 100 µM | 43.9 µM | > 100 µM | > 100 µM |  |  |  |  |  | 
17 | O=C(CN(C(=O)OC12CC3CC(CC(C3)C1)C2)C(=O)OC12CC3CC(CC(C3)C1)C2)Oc1ccc([N+](=O)[O-])cc1 | > 100 µM |  | > 100 µM | > 100 µM | > 100 µM | > 100 µM | > 100 µM | > 100 µM | > 100 µM | > 100 µM | > 100 µM | > 100 µM | > 100 µM |  |  |  |  |  | 
18 | CCCCCCCCCCCC(=O)OC[C@H](C[As](=O)(O)O)OC(=O)CCCCCCCCCCC | > 100 µM | 44.2 µM | 22.4 µM | 23.9 µM | 8.69 µM | 21.7 µM | 21.9 µM | 38.8 µM | 16.9 µM | 17.7 µM | > 100 µM | 15.1 µM | 29.5 µM |  |  |  |  |  | 
